Laboratory results reported in paper doi:10.1101/2023.10.20.563248v1 (biorxiv, 2023).

How the values were obtained:
Settings in all cases: 1 µM; inhibitor
[1] = biological target: FYN (Homo sapiens, UniProt P06241)
[2] = biological target: TLK2 (Homo sapiens, UniProt Q86UE8)
[3] = biological target: EPHB4 (Homo sapiens, UniProt P54760)
[4] = biological target: CAMKK1 (Homo sapiens, UniProt Q8N5S9)
[5] = biological target: PRK2 (Homo sapiens, UniProt Q16513)
[6] = biological target: SIK3 (Homo sapiens, UniProt Q9Y2K2)
[7] = biological target: BRSK2 (Homo sapiens, UniProt Q8IWQ3)
[8] = biological target: MEK1 (Homo sapiens, UniProt Q02750)
[9] = biological target: MEK2 (Homo sapiens, UniProt P36507)
[10] = biological target: NEK1 (Homo sapiens, UniProt Q96PY6)
[11] = biological target: IRAK4 (Homo sapiens, UniProt Q9NWZ3)
[12] = biological target: PAK4 (Homo sapiens, UniProt O96013)
[13] = biological target: LCK (Homo sapiens, UniProt P06239)
[14] = biological target: EPHA6 (Homo sapiens, UniProt Q9UF33)
[15] = biological target: GSG2 (Homo sapiens, UniProt Q8TF76)
[16] = biological target: CDK17 (Homo sapiens, UniProt Q00537)
[17] = biological target: CDK2 (Homo sapiens, UniProt P24941)
[18] = biological target: CDK2/CycA2 (Homo sapiens, UniProt P24941)
[19] = biological target: IKKa (Homo sapiens, UniProt O15111)
[20] = biological target: PKCt (Homo sapiens, UniProt Q04759)
[21] = biological target: MYLK2 (Homo sapiens, UniProt Q9H1R3)
[22] = biological target: CDK6/CycD3 (Homo sapiens, UniProt Q00534)
[23] = biological target: CDK9 (Homo sapiens, UniProt P50750)
[24] = biological target: PIM1 (Homo sapiens, UniProt P11309)
[25] = biological target: MST2 (Homo sapiens, UniProt Q13188)
[26] = biological target: ACVR2B (Homo sapiens, UniProt Q13705)
[27] = biological target: ARK5 (Homo sapiens, UniProt O60285)
[28] = biological target: LIMK1 (Homo sapiens, UniProt P53667)
[29] = biological target: RPS6KA2 (Homo sapiens, UniProt Q15349)
[30] = biological target: PRK1 (Homo sapiens, UniProt Q16512)
[31] = biological target: AXL (Homo sapiens, UniProt P30530)

Sequence of PAK4 (O96013 whole entry): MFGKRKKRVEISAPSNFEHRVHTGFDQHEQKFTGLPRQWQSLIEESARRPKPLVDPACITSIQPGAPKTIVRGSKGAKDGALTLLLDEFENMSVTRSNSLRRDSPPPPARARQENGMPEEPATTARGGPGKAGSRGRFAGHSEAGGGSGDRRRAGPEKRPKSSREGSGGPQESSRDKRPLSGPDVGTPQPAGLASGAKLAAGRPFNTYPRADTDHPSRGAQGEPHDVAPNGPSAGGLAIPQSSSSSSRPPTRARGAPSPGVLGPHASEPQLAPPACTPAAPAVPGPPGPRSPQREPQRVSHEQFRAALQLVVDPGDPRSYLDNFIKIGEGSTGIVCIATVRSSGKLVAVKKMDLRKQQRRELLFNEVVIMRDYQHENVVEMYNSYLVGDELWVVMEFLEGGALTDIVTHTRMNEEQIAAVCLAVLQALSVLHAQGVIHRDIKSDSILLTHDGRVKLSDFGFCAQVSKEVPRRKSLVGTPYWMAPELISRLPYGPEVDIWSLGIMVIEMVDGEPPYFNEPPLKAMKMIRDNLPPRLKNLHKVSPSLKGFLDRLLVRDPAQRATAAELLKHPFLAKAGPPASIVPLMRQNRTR
Sequence of IKKa (O15111 whole entry): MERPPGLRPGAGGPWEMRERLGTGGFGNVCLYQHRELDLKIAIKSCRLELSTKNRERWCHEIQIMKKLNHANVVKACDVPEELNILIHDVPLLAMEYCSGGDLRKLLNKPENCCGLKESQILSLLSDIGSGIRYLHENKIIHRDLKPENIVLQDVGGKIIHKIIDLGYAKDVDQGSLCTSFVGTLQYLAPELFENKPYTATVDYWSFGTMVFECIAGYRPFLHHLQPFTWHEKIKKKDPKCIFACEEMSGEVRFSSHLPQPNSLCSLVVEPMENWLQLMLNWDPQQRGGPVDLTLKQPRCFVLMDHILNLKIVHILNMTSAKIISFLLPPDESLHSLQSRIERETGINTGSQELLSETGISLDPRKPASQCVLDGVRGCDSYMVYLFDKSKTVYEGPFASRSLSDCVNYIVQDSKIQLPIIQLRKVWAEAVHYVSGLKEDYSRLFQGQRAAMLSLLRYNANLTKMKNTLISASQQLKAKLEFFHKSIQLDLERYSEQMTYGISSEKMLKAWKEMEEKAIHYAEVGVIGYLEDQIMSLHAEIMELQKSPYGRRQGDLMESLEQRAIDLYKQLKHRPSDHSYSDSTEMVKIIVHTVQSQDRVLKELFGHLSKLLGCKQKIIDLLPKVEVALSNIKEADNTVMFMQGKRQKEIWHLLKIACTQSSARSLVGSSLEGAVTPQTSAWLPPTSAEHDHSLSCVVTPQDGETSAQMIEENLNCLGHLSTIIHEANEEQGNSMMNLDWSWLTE
Sequence of BRSK2 (Q8IWQ3 whole entry): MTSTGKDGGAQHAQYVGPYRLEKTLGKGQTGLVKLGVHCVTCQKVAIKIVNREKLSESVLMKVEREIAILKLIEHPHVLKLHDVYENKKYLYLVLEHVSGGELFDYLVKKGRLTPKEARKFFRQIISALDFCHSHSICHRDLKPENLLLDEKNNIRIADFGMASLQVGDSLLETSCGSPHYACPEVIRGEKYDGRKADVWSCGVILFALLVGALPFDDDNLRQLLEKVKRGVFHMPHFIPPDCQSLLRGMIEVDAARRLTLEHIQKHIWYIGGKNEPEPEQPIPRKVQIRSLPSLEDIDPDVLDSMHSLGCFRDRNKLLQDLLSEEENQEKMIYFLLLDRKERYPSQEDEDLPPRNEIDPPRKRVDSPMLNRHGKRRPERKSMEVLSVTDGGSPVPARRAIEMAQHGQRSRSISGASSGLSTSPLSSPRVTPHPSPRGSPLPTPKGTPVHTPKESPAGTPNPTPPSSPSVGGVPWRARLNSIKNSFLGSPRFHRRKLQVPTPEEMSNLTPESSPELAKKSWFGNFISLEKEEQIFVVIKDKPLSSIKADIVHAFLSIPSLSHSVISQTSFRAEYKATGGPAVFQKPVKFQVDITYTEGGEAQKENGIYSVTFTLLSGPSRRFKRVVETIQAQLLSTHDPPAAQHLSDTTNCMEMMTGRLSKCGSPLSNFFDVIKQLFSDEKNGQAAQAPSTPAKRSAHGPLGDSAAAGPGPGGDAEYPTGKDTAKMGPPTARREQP
Sequence of EPHB4 (P54760 whole entry): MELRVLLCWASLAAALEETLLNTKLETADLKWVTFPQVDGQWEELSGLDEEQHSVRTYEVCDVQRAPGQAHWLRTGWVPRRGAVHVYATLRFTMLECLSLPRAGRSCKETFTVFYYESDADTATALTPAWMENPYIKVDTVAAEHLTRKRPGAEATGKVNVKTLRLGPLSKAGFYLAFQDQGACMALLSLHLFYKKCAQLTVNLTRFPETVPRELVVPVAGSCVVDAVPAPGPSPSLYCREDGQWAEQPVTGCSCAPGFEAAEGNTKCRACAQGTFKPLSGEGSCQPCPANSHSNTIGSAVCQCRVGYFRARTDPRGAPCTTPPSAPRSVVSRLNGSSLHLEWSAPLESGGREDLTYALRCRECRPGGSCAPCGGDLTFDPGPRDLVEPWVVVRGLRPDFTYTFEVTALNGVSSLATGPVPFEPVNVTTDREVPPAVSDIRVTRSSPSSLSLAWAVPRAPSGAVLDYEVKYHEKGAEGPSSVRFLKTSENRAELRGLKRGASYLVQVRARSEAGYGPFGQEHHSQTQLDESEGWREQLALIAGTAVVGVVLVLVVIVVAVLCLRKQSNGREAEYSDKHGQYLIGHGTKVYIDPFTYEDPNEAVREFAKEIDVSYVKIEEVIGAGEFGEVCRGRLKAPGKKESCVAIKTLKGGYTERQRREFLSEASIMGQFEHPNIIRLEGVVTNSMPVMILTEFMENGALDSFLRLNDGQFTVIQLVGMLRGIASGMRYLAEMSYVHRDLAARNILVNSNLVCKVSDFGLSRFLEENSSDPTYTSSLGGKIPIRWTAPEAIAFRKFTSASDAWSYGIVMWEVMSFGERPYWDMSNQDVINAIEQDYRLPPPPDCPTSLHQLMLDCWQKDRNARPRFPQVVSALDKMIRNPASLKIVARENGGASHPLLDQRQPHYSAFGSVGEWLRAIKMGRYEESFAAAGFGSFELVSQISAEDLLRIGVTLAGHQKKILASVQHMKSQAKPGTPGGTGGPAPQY
Sequence of FYN (P06241 whole entry): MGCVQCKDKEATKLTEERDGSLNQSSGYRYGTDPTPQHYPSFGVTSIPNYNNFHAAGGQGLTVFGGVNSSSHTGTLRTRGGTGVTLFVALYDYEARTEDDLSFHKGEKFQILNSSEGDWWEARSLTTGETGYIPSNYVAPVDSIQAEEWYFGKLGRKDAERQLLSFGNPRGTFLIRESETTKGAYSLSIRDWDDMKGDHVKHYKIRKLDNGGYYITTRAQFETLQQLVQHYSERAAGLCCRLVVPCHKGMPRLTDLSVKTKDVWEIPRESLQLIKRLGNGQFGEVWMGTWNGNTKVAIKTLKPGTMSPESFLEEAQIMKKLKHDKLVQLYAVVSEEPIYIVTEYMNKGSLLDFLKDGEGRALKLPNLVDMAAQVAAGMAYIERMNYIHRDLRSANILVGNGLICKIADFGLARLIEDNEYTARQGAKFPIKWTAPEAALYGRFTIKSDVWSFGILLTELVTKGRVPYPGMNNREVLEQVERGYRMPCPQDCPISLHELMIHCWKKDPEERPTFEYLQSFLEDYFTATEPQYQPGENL
Sequence of CDK9 (P50750 whole entry): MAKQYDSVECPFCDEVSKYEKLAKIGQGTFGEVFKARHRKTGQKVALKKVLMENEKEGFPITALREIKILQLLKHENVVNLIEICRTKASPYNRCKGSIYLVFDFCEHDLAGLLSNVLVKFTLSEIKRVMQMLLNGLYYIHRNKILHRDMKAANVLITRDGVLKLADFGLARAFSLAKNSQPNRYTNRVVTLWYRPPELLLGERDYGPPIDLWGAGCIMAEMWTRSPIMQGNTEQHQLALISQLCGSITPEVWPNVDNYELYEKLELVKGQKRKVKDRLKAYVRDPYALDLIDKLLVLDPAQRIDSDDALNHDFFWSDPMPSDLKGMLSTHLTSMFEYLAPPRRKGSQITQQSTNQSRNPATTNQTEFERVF
Sequence of ACVR2B (Q13705 whole entry): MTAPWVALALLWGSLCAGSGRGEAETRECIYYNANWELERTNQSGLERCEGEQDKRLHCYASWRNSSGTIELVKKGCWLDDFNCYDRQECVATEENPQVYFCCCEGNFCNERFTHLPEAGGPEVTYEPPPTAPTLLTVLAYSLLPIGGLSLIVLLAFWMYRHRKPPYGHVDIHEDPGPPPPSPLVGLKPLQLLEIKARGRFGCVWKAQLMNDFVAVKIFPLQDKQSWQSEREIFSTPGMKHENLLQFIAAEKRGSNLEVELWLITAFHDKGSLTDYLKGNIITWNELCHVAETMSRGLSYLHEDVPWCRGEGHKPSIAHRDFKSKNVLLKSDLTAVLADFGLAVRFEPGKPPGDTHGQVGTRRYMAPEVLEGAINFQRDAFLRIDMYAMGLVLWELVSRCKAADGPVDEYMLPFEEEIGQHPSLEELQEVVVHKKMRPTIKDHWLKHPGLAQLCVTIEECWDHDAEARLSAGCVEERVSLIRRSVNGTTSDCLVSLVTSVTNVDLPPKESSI
Sequence of PIM1 (P11309 whole entry): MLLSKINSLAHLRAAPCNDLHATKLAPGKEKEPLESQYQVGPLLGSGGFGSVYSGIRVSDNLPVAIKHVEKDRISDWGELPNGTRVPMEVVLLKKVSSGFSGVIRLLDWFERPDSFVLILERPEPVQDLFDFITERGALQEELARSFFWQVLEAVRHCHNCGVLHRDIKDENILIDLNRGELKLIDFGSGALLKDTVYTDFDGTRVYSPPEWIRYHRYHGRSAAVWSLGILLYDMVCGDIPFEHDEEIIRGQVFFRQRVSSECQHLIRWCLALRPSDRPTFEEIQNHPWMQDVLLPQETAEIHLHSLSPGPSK

SMILES: O=C1NCCCCCNc2nc(c3ccccc3n2)Nc2cc1[nH]n2 [21c, (Z)-3^1H-2,5,11-triaza-1(4,2)-quinazolina-3(3,5)-pyrazolacycloundecaphan-4-one]
- 21c Remaining activity, percent of control [%] [1]: 56.6%
- 21c Remaining activity, percent of control [%] [2]: 95.4%
- 21c Remaining activity, percent of control [%] [3]: 86.1%
- 21c Remaining activity, percent of control [%] [4]: 94.6%
- 21c Remaining activity, percent of control [%] [5]: 89.5%
- 21c Remaining activity, percent of control [%] [6]: 72.1%
- 21c Remaining activity, percent of control [%] [7]: 97.8%
- 21c Remaining activity, percent of control [%] [8]: 118.7%
- 21c Remaining activity, percent of control [%] [9]: 90.2%
- 21c Remaining activity, percent of control [%] [10]: 79.1%
- 21c Remaining activity, percent of control [%] [11]: 87.3%
- 21c Remaining activity, percent of control [%] [12]: 95.1%
- 21c Remaining activity, percent of control [%] [13]: 92.0%
- 21c Remaining activity, percent of control [%] [14]: 97.4%
- 21c Remaining activity, percent of control [%] [15]: 108.1%
- 21c Remaining activity, percent of control [%] [16]: 70.9%
- 21c Remaining activity, percent of control [%] [17]: 103.0%
- 21c Remaining activity, percent of control [%] [18]: 106.1%
- 21c Remaining activity, percent of control [%] [19]: 80.7%
- 21c Remaining activity, percent of control [%] [20]: 42.6%
- 21c Remaining activity, percent of control [%] [21]: 79.0%
- 21c Remaining activity, percent of control [%] [22]: 85.3%
- 21c Remaining activity, percent of control [%] [23]: 83.3%
- 21c Remaining activity, percent of control [%] [24]: 101.3%
- 21c Remaining activity, percent of control [%] [25]: 95.6%
- 21c Remaining activity, percent of control [%] [26]: 100.5%
- 21c Remaining activity, percent of control [%] [27]: 86.3%
- 21c Remaining activity, percent of control [%] [28]: 36.6%
- 21c Remaining activity, percent of control [%] [29]: 84.0%
- 21c Remaining activity, percent of control [%] [30]: 91.8%
- 21c Remaining activity, percent of control [%] [31]: 80.2%
